Test results as given in ChEMBL document CHEMBL1122556, “Design, synthesis, and binding characteristics of an opiate receptor mimetic peptide” (J Med Chem, 1984).
Residues, ends and D or L forms follow the SMILES beside them. *: point of attachment. Desaminotyrosyl = O=C(CCc1ccc(O)cc1)*; Hydrocinnamoyl = O=C(CCc1ccccc1)*

Test: Compound was evaluated for the binding strength to receptor Mimetic peptide (RMP) at 5 degree celsius, Ki was determined from its potency in displacing [Leu]-enkephalin binding.
For `CSCC[C@H](NC(=O)[C@H](Cc1ccccc1)NC(=O)CNC(=O)CNC(=O)[C@@H](N)Cc1ccc(O)cc1)C(=O)O`, the Ki was 49.5 µM.
Work on `CC(C)C[C@H](NC(=O)[C@H](Cc1ccccc1)NC(=O)CNC(=O)CNC(=O)[C@H](N)Cc1ccccc1)C(=O)O` yielded a Ki of 95.5 µM.
In the case of `CC(C)C[C@@H](NC(=O)[C@@H](Cc1ccccc1)NC(=O)CNC(=O)CNC(=O)[C@H](N)Cc1ccc(O)cc1)C(=O)O`, the Ki is reported as 400 µM.
Compound `CC(C)C[C@H](NC(=O)[C@H](Cc1ccccc1)NC(=O)CNC(=O)[C@@H](N)Cc1ccc(O)cc1)C(=O)O` has a Ki of 160 µM.
In the case of `N=C(N)NCCC[C@H](NC(=O)[C@H](Cc1ccccc1)NC(=O)[C@@H](N)Cc1cnc[nH]1)C(=O)N[C@@H](Cc1c[nH]c2ccccc12)C(=O)O`, the Ki is reported as 5950 µM.
`CC(C)C[C@H](NC(=O)[C@H](Cc1ccccc1)NC(=O)CNC(=O)CNC(=O)CCc1ccc(O)cc1)C(=O)O` (Desaminotyrosyl-GGFL-OH) gave a Ki of 205 µM.
In the case of `CC(C)C[C@H](NC(=O)[C@H](Cc1ccccc1)NC(=O)CNC(=O)CNC(=O)CCc1ccccc1)C(=O)O` (Hydrocinnamoyl-GGFL-OH), the Ki is reported as 620 µM.
In the case of `C=CCN1CC[C@]23c4c5ccc(O)c4O[C@H]2C(=O)CC[C@@]3(O)[C@H]1C5` [NALOXONE], the Ki is reported as 7460 µM.
